Reference: patent US7053047B2, “Cyclic pentapeptides and their preparation” (Purzer Pharmaceutical Co., Ltd., priority 2002, dated 2006)
Marks after values point to notes of the source that are not given here.

Columns and labels:
[1] = system: coronary artery thrombosis; assay: Thrombolysis with tissue plasminogene activator in dogs with coronary artery thrombosis; type: in vivo; settings: injected i.v. together with tissue plasminogene activator
From the text: Peptide 6A is a degradation of fibrinogen β chain analogue which has been known to increase coronary artery and femoral artery blood flow. In 1978(1), peptide 6A was first isolated and purified from the β chain of human fibrinogen by Belew et al.(2). The composition of peptide 6A was confirmed as Ala-Arg-Pro-Ala-Lys (SEQ ID NO: 25). […] In 1997, the inventors prepared peptide 6A and its analogues by solution method and observed that these peptides have good potency for relaxing vascula, lowering blood pressure and anti-thrombosis. The synthetic techniques and functions of these compounds have been described in CN Patent No. 1146458.

thrombus = assay: Thrombolytic effect in thrombolysis rat model (thrombus on bolt in arteriovenous polyethylene tube); type: in vivo, Wistar rat; settings: for m, thrombus mass reduction: injected in 6 min, bolt weighed after 1 h, n = 8; for thrombolytic effect / potency (comparison in words): thrombolysis rat model, Tables 1 and 2
Description: The thrombolytic effect was evaluated by thrombolysis rat model.
0.1 ml Wistar rat blood was poured into a glass tube (length, 15 mm; external diameter, 5.0 mm; internal diameter, 2.5 mm) which was fixed vertically and the bottom was sealed with a rubber stopper. A stainless steel bolt was inserted quickly, the bolt diameter was 0.2 mm and the length was 12 mm. 15 min later, the bolt containing thrombus was taken out from the glass tube and weighed exactly.
Male Wistar rat weighing 220 g–280 g were anesthetized with pentobarbital sodium (80 mg/kg, i.p). The right arteria carotis communis and the left vena jugulars externa were separated. The bolt containing thrombus was put in the polyethylene tube and one end was inserted into the left vena jugulars externa. 50 IU/kg of heparin sodium was injected as anticoagulant, and the other tube end was inserted into the right arteria carotis communis. At this time the blood flowed from the right arteria carotis to the left vena jugulars externa via the polyethylene tube. Then normal saline solution, UK, GP6A (SEQ ID NO: 26), P6A (SEQ ID NO: 25) and KP6A (SEQ ID NO: 27) were injected in 6 min. The bolt was taken out and weighed after 1 h. The data are listed in Table 1 and Table 2, statistical data analysis was carried out by using student's t test, p<0.05 was considered significant.

[2] = system: coronary artery and femoral artery blood flow; settings: dogs; cited from earlier work

Substance | parameters of thrombolysis [1] | m, thrombus mass reduction (thrombus; dosage 5 μmol/kg) | coronary artery and femoral artery blood flow [2] | m, thrombus mass reduction (thrombus; dosage 10 μmol/kg) | m, thrombus mass reduction (thrombus; dosage 20 μmol/kg) | thrombolytic effect compared with UK (thrombus; high concentration (>10 μmol) versus UK (2000 IU/Kg)) | thrombolytic effect / potency (comparison in words) (thrombus)
H-Ala-Arg-Pro-Ala-LysOH (H-ARPAK-OH) [Compound P6A] | no additional benefit on the parameters of thrombolysis | 6.07 ± 2.14^a mg | increases coronary artery and femoral artery blood flow |  |  |  | 
H-Lys-Arg-Pro-Ala-LysOH (KRPAK; KP6A) |  | 0.28 ± 2.13 mg |  |  |  |  | 
Cyclo(Gly-Arg-Pro-Ala-Lys) (GRPAK; cyclic; Cyclo GP6A) [CycloGP6A] |  | 8.35 ± 2.76^a mg |  | 17.31 ± 4.29^a mg | 18.38 ± 2.08^a,b,c mg | even better than UK | much more thrombolytic potency than the others
H-Gly-Arg-Pro-Ala-LysOH (GRPAK; GP6A) |  | 9.31 ± 3.94^a mg |  | 13.17 ± 4.13^a mg | 16.81 ± 544^a,b mg |  | much more thrombolytic potency than the others
Cyclo(Ala-Arg-Pro-Ala-Lys) (ARPAK; cyclic; Cyclo P6A) [CycloP6A] |  | 10.62 ± 3.15^a mg |  |  |  |  | 
Cyclo(Lys-Arg-Pro-Ala-Lys) (KRPAK; cyclic; Cyclo KP6A) [CycloKP6A] |  | 6.13 ± 2.31^a mg |  |  |  |  | 
